In publication PMC7312539, “Homology Modeling of the Human P-glycoprotein (ABCB1) and Insights into Ligand Binding through Molecular Docking Studies” (International Journal of Molecular Sciences, 2020):

Molecular target: efflux pump P-gp (Homo sapiens, UniProt P08183)
Details: Figure 11; for Effect on the rate of excretion of rhodamine 123 (R123) out of Caco-2 cells / interaction with P-gp: Caco-2 cells loaded with 10 μM R123, compared to control DMSO
Description: Results are expressed as percentage compared to the rate of excretion of R123 in the absence of drug (i.e control DMSO). Error bars: SD; verapamil: positive control; diazepam: negative control.
Shortly, Caco-2 cells were washed with HEPES-buffered Ringer’s (RH) solution (NaCl 150 mM, KCl 5.2 mM, CaCl2 2.2 mM, MgCl2 0.2 mM, NaHCO3 6 mM, Glucose 2.8 mM, HEPES 5 mM, water for injection), pH = 7.4 and incubated for 120 min with 10 μM R123. After incubation, cells were washed with RH and incubated with test compounds for one hour during which the rate out (Kout) of R123 (λex = 485 nm and λem = 538 nm) was monitored every 2 minutes with a microplate fluorescence reader (Fluoroskan Ascent FL, Thermo Labsystems, Issy-Les-Moulineaux, France) at 37 °C, after which the cell viability was assessed using MTT cytotoxicity assay kit. Rhodamine Kout was calculated as the slope of the curve of the cumulative R123 fluorescence against the time. Verapamil was used as a positive control and diazepam as negative control.

efflux pump P-gp, sequence (P08183 whole entry): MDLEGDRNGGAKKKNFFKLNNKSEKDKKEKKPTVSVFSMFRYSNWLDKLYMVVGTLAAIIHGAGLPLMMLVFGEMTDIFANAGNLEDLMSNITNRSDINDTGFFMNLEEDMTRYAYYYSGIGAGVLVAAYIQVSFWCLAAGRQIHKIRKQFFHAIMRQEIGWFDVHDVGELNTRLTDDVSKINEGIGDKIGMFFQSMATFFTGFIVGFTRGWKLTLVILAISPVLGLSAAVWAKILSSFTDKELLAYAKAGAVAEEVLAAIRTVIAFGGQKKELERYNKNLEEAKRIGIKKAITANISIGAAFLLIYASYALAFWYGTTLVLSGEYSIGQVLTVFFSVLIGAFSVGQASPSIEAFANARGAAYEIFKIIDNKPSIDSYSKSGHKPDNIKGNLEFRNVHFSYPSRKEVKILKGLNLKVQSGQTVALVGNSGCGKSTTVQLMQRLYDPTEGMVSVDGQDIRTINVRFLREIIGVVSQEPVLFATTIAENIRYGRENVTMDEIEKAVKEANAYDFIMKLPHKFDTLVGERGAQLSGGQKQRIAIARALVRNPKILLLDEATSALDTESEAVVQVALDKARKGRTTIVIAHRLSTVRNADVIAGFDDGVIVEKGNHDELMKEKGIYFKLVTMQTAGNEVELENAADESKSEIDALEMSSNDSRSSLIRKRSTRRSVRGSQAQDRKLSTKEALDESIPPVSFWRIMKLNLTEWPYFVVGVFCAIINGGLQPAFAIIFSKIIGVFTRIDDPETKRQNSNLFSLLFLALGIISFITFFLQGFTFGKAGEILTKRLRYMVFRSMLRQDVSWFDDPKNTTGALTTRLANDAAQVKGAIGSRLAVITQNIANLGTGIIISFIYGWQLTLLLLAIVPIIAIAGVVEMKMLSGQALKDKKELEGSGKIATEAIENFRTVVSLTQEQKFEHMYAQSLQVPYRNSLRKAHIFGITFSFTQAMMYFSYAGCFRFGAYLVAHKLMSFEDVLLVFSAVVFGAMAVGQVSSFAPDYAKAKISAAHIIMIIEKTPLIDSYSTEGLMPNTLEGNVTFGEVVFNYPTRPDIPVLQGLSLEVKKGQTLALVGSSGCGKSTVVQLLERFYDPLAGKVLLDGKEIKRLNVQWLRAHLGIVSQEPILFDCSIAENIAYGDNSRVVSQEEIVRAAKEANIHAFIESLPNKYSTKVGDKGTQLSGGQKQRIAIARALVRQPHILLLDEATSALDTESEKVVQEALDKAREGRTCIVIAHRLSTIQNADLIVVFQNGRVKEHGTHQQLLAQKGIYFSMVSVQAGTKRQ

Row | Effect on the rate of excretion of rhodamine 123 (R123) out of Caco-2 cells / interaction with P-gp | Compound | Interference with the P-gp mediated efflux of R123 out of Caco-2 cells (compound at 50 µM, Caco-2 cells)
1 | not transported by P-gp | CS(=O)(=O)OCCCCOS(C)(=O)=O [BU, busulfan] | 
2 | did not show any interaction | NCCC(O)(P(=O)(O)O)P(=O)(O)O [APD, pamidronate] | 
3 |  | C[n+]1ccc(-c2cc[n+](C)cc2)cc1 [PQ, paraquat] | do not interfere
4 | not transported by P-gp | CCCC(CCC)C(=O)O [VPA, valproic acid] | 
